Measured values from ChEMBL document CHEMBL4145452, “Polymeric bile acid sequestrants: Review of design, in vitro binding activities, and hypocholesterolemic effects” (Eur J Med Chem, 2018).

Species on record: Homo sapiens
Test: Hypocholesterolemic effect in hypercholesterolemia patient assessed as decrease in LDL cholesterol level
Format: functional
Set-up: scale not given: the % may be the effect or the level left

CC[C@H](C)C(=O)O[C@H]1C[C@@H](C)C=C2C=C[C@H](C)[C@H](CC[C@@H]3C[C@@H](O)CC(=O)O3)[C@H]21 [LOVASTATIN]
Activity: 22%
